Laboratory results as given in patent publication US11903959B2 (EMORY UNIVERSITY, priority 2017, dated 2024).
Read-outs that look alike come from different tables or passages of the source.

Key:
Pichinde virus = assay: microbe, parasite or virus in culture; format: cell-based; details: Vero, Vero cells
Junin virus = assay: microbe, parasite or virus in culture; format: cell-based; details: Mammarenavirus juninense, Vero, Vero cells
EEEV = assay: microbe, parasite or virus in culture; format: cell-based; details: Eastern equine encephalitis virus
WNV = assay: microbe, parasite or virus in culture; format: cell-based; details: West Nile virus, Vero 76
RVFV = assay: microbe, parasite or virus in culture; format: cell-based; details: Rift Valley fever virus, Vero
Punta Toro virus = assay: microbe, parasite or virus in culture; format: cell-based
Heartland virus = assay: microbe, parasite or virus in culture; format: cell-based; details: Vero
Flu A H7N9 (High Path) = assay: microbe, parasite or virus in culture; format: cell-based; details: Influenza A virus, H7N9, MDCK, MDCK cells
EBOV = assay: microbe, parasite or virus in culture; format: cell-based, Ebola virus; details: Zaire ebolavirus, Vero
[1] = Cytotoxicity (CC50) run with antiviral assays, BHK cells; format: cell-based; details: hamster, Flaviviridae table
Procedure: Four-concentration CPE inhibition assays are performed. Confluent or near-confluent cell culture monolayers in 96-well disposable microplates are prepared. Cells are maintained in MEM or DMEM supplemented with FBS as required for each cell line. For antiviral assays the same medium is used but with FBS reduced to 2% or less and supplemented with 50 μg/mL gentamicin. The test compound is prepared at four log10 final concentrations, usually 0.1, 1.0, 10, and 100 μg/mL or μM. The virus control and cell control wells are on every microplate. In parallel, a known active drug is tested as a positive control drug using the same method as is applied for test compounds. The positive control is tested with each test run. The assay is set up by first removing growth media from the 96-well plates of cells. Then the test compound is applied in 0.1 mL volume to wells at 2× concentration. […] The dye content in each well is quantified using a 96-well spectrophotometer at 540 nm wavelength. […]
This assay involves similar methodology to what is described in the previous paragraphs using 96-well microplates of cells. […] The incorporated dye content is quantified as described above. […] Compounds observed to be active above are further evaluated by VYR assay. […] Wells are scored for presence or absence of virus after distinct CPE (measured by neutral red uptake) is observed. […]

[2] = cynomolgus monkey, in vivo, po; for AUC0->24 h / CL / Cmax / t1/2 / tmax: 0.4 mmol/kg
in vivo = details: female, DBA-1J, mouse, po
[3] = Cytotoxicity (CC50) run with antiviral assays, HeLa-Ohio cells; details: human

In the case of O=c1nc(NO)ccn1C1OC(CO)C(O)C1O (centres unmarked) [EIDD-1931, 1-(3,4-dihydroxy-5-(hydroxymethyl)tetrahydrofuran-2-yl)-4-(hydroxyamino)pyrimidin-2-one], the EC50 (Pichinde virus) is reported as 18.4 µM, the EC50 (Junin virus) is reported as 18.4 µM and the EC90 (EEEV; Vero 76) is reported as 1.68 µM. It also gave an EC50 (EEEV; Vero, EEE virus, Vero cell cytopathic effect (CPE) model) of 1.08 µM, an EC50 (WNV) of over 400 µM and an EC90 (RVFV) of 1 µM. The EC50 (RVFV; RVFV, Vero cells) was 1.68 µM, the EC50 (Punta Toro virus) was 20.4 µM and the EC50 (Punta Toro virus; Punta Toro virus, Vero 76) was 20 µM. It also gave an EC90 (Heartland virus) of 7.84 µM, an EC50 (Flu A H7N9 (High Path)) of over 48 µM and an EC50 (EBOV) of 4.7 µM. The EC90 (EBOV) was 25 µM, the CC50 [1] was 30 µM and the bioavailability [2] was “low bioavailability”. For the same compound, the F ([2]; female) was about 3%, the “AUC0->24 h” value ([2]; female) was 7.21 ± 4.21 µM·h and the CL ([2]; female) was 1100 ± 527 mL/min/kg. It also gave a Cmax ([2]; female) of 3.31 ± 1.99 µM, a t1/2 ([2]; female) of 46.8 ± 12 min and a tmax ([2]; female) of 52.2 ± 45 min. The “AUC0->24 h” value ([2]; male) was 5.75 ± 1.99 µM·h, the CL ([2]; male) was 1170 ± 312 mL/min/kg and the Cmax ([2]; male) was 3.31 ± 1.82 µM. For the same compound, the t1/2 ([2]; male) was 72 ± 72 min, the tmax ([2]; male) was 45 ± 16.8 min and the half-life (in vivo) was 246 to 282 min. It also gave a Cmax (in vivo; 30 mg/kg) of 3000 ng/mL, a Cmax (in vivo; 100 mg/kg) of 7700 ng/mL and a Cmax (in vivo; 300 mg/kg) of 11700 ng/mL. The tmax (in vivo; 300 mg/kg) was 15 to 30 min and the CC50 [3] was over 40 µM.
